We go through 16 compounds from patent US8063088B2 (Hoffmann-La Roche Inc., priority 2008, dated 2011).

One experiment deals with T1, human LXR alpha (Homo sapiens, UniProt Q13133).
T1 construct: human LXR alpha (aa 164 to 447); unspecified tag ('tagged versions'); made in house; host or cells: E. coli BL21 (pLysS)
T1 sequence (Q13133 164-447): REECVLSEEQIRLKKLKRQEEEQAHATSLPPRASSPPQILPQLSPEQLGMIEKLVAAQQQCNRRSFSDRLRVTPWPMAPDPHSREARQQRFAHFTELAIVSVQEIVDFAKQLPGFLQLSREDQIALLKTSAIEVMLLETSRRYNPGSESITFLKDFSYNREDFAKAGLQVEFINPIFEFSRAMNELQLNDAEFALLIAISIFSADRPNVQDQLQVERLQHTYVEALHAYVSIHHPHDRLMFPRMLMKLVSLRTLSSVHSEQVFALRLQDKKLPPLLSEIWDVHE
The experiment in a line: Radioligand binding assay (SPA), LXR alpha LBD. To be noted: radioligand displacement, LXRα-LBD on SPA beads; read-out: LXRalpha Binding IC50. Here is the method: (§1) The following tests were carried out in order to determine the activity of the compounds of the present invention. Background information on the performed assays can be found in: Nichols J S et al. “Development of a scintillation proximity assay for peroxisome proliferator-activated receptor gamma ligand binding domain”, Anal Biochem. 1998, 257: 112-119.
(§2) Mammalian expression vectors were constructed to express full-length human LXR alpha and LXR beta. Bacterial expression vectors were constructed to produce tagged versions of the ligand binding domains (LBD) of human LXR alpha (aa 164 to 447) and human LXR beta (aa 155 to 460). To accomplish this, the portions of the sequences encoding the LBDs were amplified from the full-length clones by PCR and then subcloned into the plasmid vectors. Final clones were verified by DNA sequence analysis (Willy et al., Genes Dev. 1995, 9:1033-45; Song et al., Proc Natl Acad Sci USA. 1994, 91:10809-13).
(§3) Induction, expression, and purification of LBD proteins were performed in E. coli strain BL21 (pLysS) cells by standard methods (Ref: Current Protocols in Molecular Biology, Wiley Press, edited by Ausubel et al).
(§4) Radioligand Binding Assay
(§5) LXR alpha and LXR beta receptor binding were assayed in buffer consisting of 50 mM HEPES, pH 7.4, 10 mM NaCl, 5 mM MgCl2. For each 96-well reaction, 500 ng of LXRα-LBD or 700 ng of LXR beta-LBD proteins were bound to 80 μg or 40 μg SPA beads respectively, in a final volume of 50 μl by shaking. The resulting slurry was incubated for 1 h at RT and centrifuged for 2 min at 1300×g. The supernatant containing unbound protein was removed, and the semi-dry pellet containing the receptor-coated beads was re-suspended in 50 μl of buffer. Radioligand (eg. 100,000 dpm of (N-(2,2,2-trifluoroethyl)-N-[4-(2,2,2-trifluoro-1-hydroxy-1-trifluoromethylethyl)-phenyl]-benzenesulfonamide)) was added, and the reaction incubated at RT for 1 h in the presence of test compounds, and then scintillation proximity counting was performed. All binding assays were performed in 96-well plates and the amount of bound ligand was measured on a Packard TopCount using OptiPlates (Packard). Dose response curves were measured within a range of concentration from 10^−10 M to 10^−4 M.
(Loss of bound radioactivity is the signal in a displacement assay; it reports binding, not function.)

Another experiment addresses T2, human LXR beta (Homo sapiens, UniProt P55055).
T2 construct: human LXR beta (aa 155 to 460); unspecified tag ('tagged versions'); made in house; host or cells: E. coli BL21 (pLysS)
T2 sequence (P55055 155-460): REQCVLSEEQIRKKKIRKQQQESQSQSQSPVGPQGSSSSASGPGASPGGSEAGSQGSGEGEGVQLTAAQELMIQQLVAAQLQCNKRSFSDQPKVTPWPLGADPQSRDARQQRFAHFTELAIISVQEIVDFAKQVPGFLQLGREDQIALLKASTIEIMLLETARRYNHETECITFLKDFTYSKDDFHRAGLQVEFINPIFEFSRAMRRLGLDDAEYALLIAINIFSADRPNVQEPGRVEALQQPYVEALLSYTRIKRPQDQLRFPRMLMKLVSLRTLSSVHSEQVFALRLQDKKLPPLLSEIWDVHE
The experiment in a line: Radioligand binding assay (SPA), LXR beta LBD. To be noted: radioligand displacement, LXR beta-LBD on SPA beads; read-out: LXRbeta Binding IC50. The protocol:
as §1, §2, §3, §4, §5

A word on the IC50: it is the midpoint of a concentration-inhibition curve.

Each structure is given as a SMILES string.

Turning to `O=C(O)c1ccccc1-c1cccc(C2CN(S(=O)(=O)c3ccccc3)C(=O)N2c2ccccc2)c1` (centres unmarked) [Example 11, 3′-(1-Benzenesulfonyl-2-oxo-3-phenyl-imidazolidin-4-yl)-biphenyl-2-carboxylic acid], the IC50 at human LXR alpha is 13000 nM; at human LXR beta, 46100 nM.
Taken in the same sequence, the figures for `CC(C)N1C(=O)N(S(=O)(=O)c2ccccc2)CC1c1cccc(-c2ccc(CO)c(S(C)(=O)=O)c2)c1` (centres unmarked) [Example 20, 1-Benzenesulfonyl-4-(4′-hydroxymethyl-3′-methanesulfonyl-biphenyl-3-yl)-3-isopropyl-imidazolidin-2-one] were 6 nM and 1 nM.
For the compound `CS(=O)(=O)c1cccc(-c2cccc(C3CN(S(=O)(=O)c4ccccc4)CCN3c3ccccc3)c2)c1` (centres unmarked) [Example 34, 4-Benzenesulfonyl-2-(3′-methanesulfonyl-biphenyl-3-yl)-1-phenyl-piperazine], the IC50 amounted to 56 nM on human LXR alpha and 2 nM at human LXR beta.
Take `Cc1ccc(C)c(-c2ccc(C3CN(S(=O)(=O)c4ccccc4)C(=O)N3c3ccccc3)cc2)c1` (centres unmarked) [Example 3, 1-Benzenesulfonyl-4-(2′,5′-dimethyl-biphenyl-4-yl)-3-phenyl-imidazolidin-2-one]: the IC50 at human LXR alpha was found to be 10200 nM; on human LXR beta, 5250 nM.
On to `CS(=O)(=O)c1cc(-c2ccc(C3CN(S(=O)(=O)c4ccccc4)C(=O)N3c3ccccc3)cc2)ccc1CO` (centres unmarked) [Example 19, 1-Benzenesulfonyl-4-(4′-hydroxymethyl-3′-methanesulfonyl-biphenyl-4-yl)-3-phenyl-imidazolidin-2-one], for which the values for the IC50 at human LXR alpha and at human LXR beta were 45 nM and 18 nM, respectively.
Taken in the same sequence, the figures for `CS(=O)(=O)c1cccc(-c2cccc(C3CN(S(=O)(=O)c4ccccc4)CC(=O)N3c3ccccc3)c2)c1` (centres unmarked) [Example 33, 4-Benzenesulfonyl-6-(3′-methanesulfonyl-biphenyl-3-yl)-1-phenyl-piperazin-2-one] were 52700 nM and 530 nM.
`Cc1oncc1S(=O)(=O)N1CC(c2cccc(-c3cccc(S(C)(=O)=O)c3)c2)N(C(C)C)C1=O` (centres unmarked) [Example 15, 3-Isopropyl-4-(3′-methanesulfonyl-biphenyl-3-yl)-1-(5-methyl-isoxazole-4-sulfonyl)-imidazolidin-2-one]: the values for the IC50 on human LXR alpha and on human LXR beta were 2580 nM and 160 nM, respectively.
As to `CC(C)N1C(=O)N(S(=O)(=O)c2ccccc2)CC1c1cccc(-c2cc(F)ccc2Cl)c1` (centres unmarked) [Example 25, 1-Benzenesulfonyl-4-(2′-coro-5′-fluoro-biphenyl-3-yl)-3-isopropyl-imidazolidin-2-one], the IC50 at human LXR alpha stood at 2030 nM; on human LXR beta it was 265 nM.
In the case of `O=C(O)c1cccc(-c2ccc(C3CN(S(=O)(=O)c4ccccc4)C(=O)N3c3ccccc3)cc2)c1` (centres unmarked) [Example 2, 4′-(1-Benzenesulfonyl-2-oxo-3-phenyl-imidazolidin-4-yl)-biphenyl-3-carboxylic acid], the IC50 at human LXR alpha turned out to be 7970 nM; on human LXR beta, 8050 nM.
Taken in the same sequence, the figures for `CC(C)N1C(=O)N(S(=O)(=O)c2ccccc2)CC1c1cccc(-c2cncc(S(C)(=O)=O)c2)c1` (centres unmarked) [Example 23, 1-Benzenesulfonyl-3-isopropyl-4-[3-(5-methanesulfonyl-pyridin-3-yl)-phenyl]-imidazolidin-2-one] were 2790 nM and 25 nM.
Turning to `NCc1cccc(-c2cccc([C@@H]3CN(S(=O)(=O)c4ccccc4)CC[C@H]3c3ccccc3)c2)c1` (relative stereo) [Example 37], the 50% inhibitory concentration (IC50) was found to be 2540 nM on human LXR alpha and 2090 nM at human LXR beta.
Take `Cc1ccccc1N1CCN(S(=O)(=O)c2ccccc2)CC1c1cccc(-c2cccc(S(C)(=O)=O)c2)c1` (centres unmarked) [Example 50, 4-Benzenesulfonyl-2-(3′-methanesulfonyl-biphenyl-3-yl)-1-o-tolyl-piperazine]: the IC50 stood at 12300 nM at human LXR alpha and 165 nM at human LXR beta.
For the compound `Cc1ccc(C)c(-c2cccc([C@@H]3CN(C(=O)OC(C)(C)C)CC[C@@H]3c3ccccc3)c2)c1` (relative stereo) [Example 41, cis-3-(2′,5′-Dimethyl-biphenyl-3-yl)-4-phenyl-piperidine-1-carboxylic acid tert-butyl ester], the half-maximal inhibitory concentration (IC50) was determined as 27400 nM on human LXR alpha and 36800 nM at human LXR beta.
With `Cc1ccc(F)cc1-c1cccc(C2CN(S(=O)(=O)c3ccccc3)C(=O)N2C(C)C)c1` (centres unmarked) [Example 22, 1-Benzenesulfonyl-4-(5′-fluoro-2′-methyl-biphenyl-3-yl)-3-isopropyl-imidazolidin-2-one], the IC50 at human LXR alpha was found to be 4700 nM; at human LXR beta it was 1360 nM.
As to `CS(=O)(=O)c1cccc(-c2cccc(C3CN(S(=O)(=O)c4ccccc4)C(=O)N3c3ccccc3)c2)c1` (centres unmarked) [Example 7, 1-Benzenesulfonyl-4-(3′-methanesulfonyl-biphenyl-3-yl)-3-phenyl-imidazolidin-2-one], the values for the concentration for half-maximal inhibition (IC50) at human LXR alpha and on human LXR beta were 90 nM and 4 nM, respectively.
Regarding `CCS(=O)(=O)N1CC(c2cccc(-c3cccc(S(C)(=O)=O)c3)c2)N(C(C)C)C1=O` (centres unmarked) [Example 18, 1-Ethanesulfonyl-3-isopropyl-4-(3′-methanesulfonyl-biphenyl-3-yl)-imidazolidin-2-one], the 50% inhibitory concentration (IC50) on human LXR alpha turned out to be 5010 nM; at human LXR beta it was 106 nM.
